According to patent US10376520B2, “Methods for the treatment of cardiovascular disorders” (Galapagos NV, priority 2015, dated 2019):

Test system: RA patients
Test: [HDL] determination, Study 1 (RA patients, add-on to MTX)
Type: in vivo, human
Method: Double-blind, placebo-controlled add on study in subjects with moderately to severely active RA who have an inadequate response to methotrexate (MTX) (oral or parenteral).
595 subjects randomized to one of 6 dose regimens of Compound 1 (dosed as a [Compound 1:HCl:3H2O]) (3 dose levels administered either once or twice daily) or placebo on top of each subject's stable dose of MTX.
Compound 1 (dosed as a [Compound 1:HCl:3H2O]) is dosed for twelve weeks once daily (q.d.) (50 mg, 100 mg or 200 mg) or twice daily (b.i.d.) (25 mg, 50 mg or 100 mg); or placebo.
At Week 12, the subjects on placebo who have not achieved 20% improvement in swollen joint count (SJC66) and tender joint count (TJC68) are re-randomized automatically to receive Compound 1 (dosed as a [Compound 1:HCl:3H2O]) either at 100 mg q.d. or 50 mg b.i.d. doses in a blinded fashion; subjects on 50 mg q.d. who have not achieved 20% improvement in SJC66 and TJC68 will be assigned to 100 mg q.d. and subjects on 25 mg b.i.d. that have not achieved a 20% improvement in SJC66 and TJC68 will be assigned to 50 mg b.i.d. Subjects who switch treatment at week 12 are handled as if they discontinued at week 12 for the purpose of statistical analysis, whereas subjects in the other groups will maintain their randomized treatment until Week 24.
This assay relies on a homogeneous enzymatic colorimetric test. In the presence of magnesium ions, dextran sulfate selectively forms water-soluble complexes with LDL, VLDL and chylomicrons which are resistant to PEG-modified enzymes.
The cholesterol concentration of [HDL]-cholesterol is determined enzymatically by cholesterol esterase and cholesterol oxidase coupled with PEG to the amino groups (approx. 40%).
In the presence of peroxidase, the hydrogen peroxide generated reacts with 4-amino-antipyrine and Sodium N-(2-hydroxy-3-sulfopropyl)-3,5-dimethoxyaniline (HSDA) to form a purple-blue dye. The color intensity of this dye is directly proportional to the cholesterol concentration and is measured photometrically.
Human serum and plasma samples [HDL] determination was done on a Roche/Hitachi Cobas c 701/702 system which automatically calculate the analyte concentration of each sample. Samples containing precipitates are centrifuged before performing the assay.

[1] = continued 200 mg q.d. (N = 86), week 4
[2] = continued 200 mg q.d. (N = 86), week 8
[3] = continued 200 mg q.d. (N = 86), week 12
[4] = continued 200 mg q.d. (N = 86), week 16
[5] = continued 200 mg q.d. (N = 86), week 20
[6] = continued 200 mg q.d. (N = 86), week 24
[7] = from 25 mg b.i.d. to 50 mg b.i.d at 12 weeks (N = 17), week 1
[8] = from 25 mg b.i.d. to 50 mg b.i.d at 12 weeks (N = 17), week 2
[9] = from 25 mg b.i.d. to 50 mg b.i.d at 12 weeks (N = 17), week 4
[10] = from 25 mg b.i.d. to 50 mg b.i.d at 12 weeks (N = 17), week 8
[11] = from 25 mg b.i.d. to 50 mg b.i.d at 12 weeks (N = 17), week 12
[12] = from 25 mg b.i.d. to 50 mg b.i.d at 12 weeks (N = 17), week 24
[13] = from 50 mg q.d. to 100 mg q.d. at 12 weeks (N = 19), week 1
[14] = from 50 mg q.d. to 100 mg q.d. at 12 weeks (N = 19), week 2
[15] = from 50 mg q.d. to 100 mg q.d. at 12 weeks (N = 19), week 4
[16] = from 50 mg q.d. to 100 mg q.d. at 12 weeks (N = 19), week 8
[17] = from 50 mg q.d. to 100 mg q.d. at 12 weeks (N = 19), week 12
[18] = from 50 mg q.d. to 100 mg q.d. at 12 weeks (N = 19), week 16
[19] = from 50 mg q.d. to 100 mg q.d. at 12 weeks (N = 19), week 20
[20] = from 50 mg q.d. to 100 mg q.d. at 12 weeks (N = 19), week 24
[21] = placebo switched to 50 mg b.i.d at week 12 (N = 15), week 16
[22] = placebo switched to 50 mg b.i.d at week 12 (N = 15), week 20
[23] = placebo switched to 50 mg b.i.d at week 12 (N = 15), week 24

## O=C(Nc1nc2cccc(-c3ccc(CN4CCS(=O)(=O)CC4)cc3)n2n1)C1CC1 [Compound 1, cyclopropanecarboxylic acid {5-[4-(1,1-dioxo-thiomorpholin-4-ylmethyl)-phenyl]-[1,2,4]triazolo[1,5-a]pyridin-2yl}-amide]
[1]
  [HDL] Mean percentage CFB - 24 weeks results: 19.85%
  [HDL] Median CFB - 24 weeks results: 0.25 mmol/L
[2]
  [HDL] Mean CFB - 24 weeks results: 0.29 mmol/L
  [HDL] Mean percentage CFB - 24 weeks results: 21.85%
  [HDL] Median CFB - 24 weeks results: 0.30 mmol/L
[3]
  [HDL] Mean CFB - 24 weeks results: 0.27 mmol/L
  [HDL] Mean percentage CFB - 24 weeks results: 21.24%
  [HDL] Median CFB - 24 weeks results: 0.26 mmol/L
[4]
  [HDL] Mean CFB - 24 weeks results: 0.27 mmol/L
  [HDL] Mean percentage CFB - 24 weeks results: 21.14%
  [HDL] Median CFB - 24 weeks results: 0.23 mmol/L
[5]
  [HDL] Mean CFB - 24 weeks results: 0.30 mmol/L
  [HDL] Mean percentage CFB - 24 weeks results: 24.27%
  [HDL] Median CFB - 24 weeks results: 0.30 mmol/L
[6]
  [HDL] Mean CFB - 24 weeks results: 0.26 mmol/L
  [HDL] Mean percentage CFB - 24 weeks results: 20.78%
  [HDL] Median CFB - 24 weeks results: 0.25 mmol/L
[7]
  [HDL] Mean CFB - 24 weeks results: -0.05 mmol/L
  [HDL] Mean percentage CFB - 24 weeks results: −1.35%
  [HDL] Median CFB - 24 weeks results: -0.01 mmol/L
[8]
  [HDL] Mean CFB - 24 weeks results: 0.03 mmol/L
  [HDL] Mean percentage CFB - 24 weeks results: 4.08%
  [HDL] Median CFB - 24 weeks results: 0.05 mmol/L
[9]
  [HDL] Mean CFB - 24 weeks results: -0.01 mmol/L
  [HDL] Mean percentage CFB - 24 weeks results: 1.09%
  [HDL] Median CFB - 24 weeks results: 0.00 mmol/L
[10]
  [HDL] Mean CFB - 24 weeks results: -0.02 mmol/L
  [HDL] Mean percentage CFB - 24 weeks results: 0.59%
  [HDL] Median CFB - 24 weeks results: 0.05 mmol/L
[11]
  [HDL] Mean CFB - 24 weeks results: 0.04 mmol/L
  [HDL] Mean percentage CFB - 24 weeks results: 5.55%
  [HDL] Median CFB - 24 weeks results: 0.00 mmol/L
From 25 mg b.i.d. to 50 mg b.i.d at 12 weeks (N = 17), week 16
  [HDL] Mean percentage CFB - 24 weeks results: 7.37%
From 25 mg b.i.d. to 50 mg b.i.d at 12 weeks (N = 17), week 20
  [HDL] Mean percentage CFB - 24 weeks results: 1.50%
[12]
  [HDL] Mean CFB - 24 weeks results: 0.10 mmol/L
  [HDL] Mean percentage CFB - 24 weeks results: 8.10%
  [HDL] Median CFB - 24 weeks results: 0.17 mmol/L
[13]
  [HDL] Mean CFB - 24 weeks results: 0.02 mmol/L
  [HDL] Mean percentage CFB - 24 weeks results: 2.29%
  [HDL] Median CFB - 24 weeks results: 0.00 mmol/L
[14]
  [HDL] Mean CFB - 24 weeks results: 0.10 mmol/L
  [HDL] Mean percentage CFB - 24 weeks results: 6.63%
  [HDL] Median CFB - 24 weeks results: 0.07 mmol/L
[15]
  [HDL] Mean CFB - 24 weeks results: 0.07 mmol/L
  [HDL] Mean percentage CFB - 24 weeks results: 5.26%
  [HDL] Median CFB - 24 weeks results: 0.06 mmol/L
[16]
  [HDL] Mean CFB - 24 weeks results: 0.05 mmol/L
  [HDL] Mean percentage CFB - 24 weeks results: 5.77%
  [HDL] Median CFB - 24 weeks results: 0.09 mmol/L
[17]
  [HDL] Mean CFB - 24 weeks results: -0.02 mmol/L
  [HDL] Mean percentage CFB - 24 weeks results: 2.41%
  [HDL] Median CFB - 24 weeks results: -0.05 mmol/L
[18]
  [HDL] Mean CFB - 24 weeks results: 0.18 mmol/L
  [HDL] Mean percentage CFB - 24 weeks results: 11.43%
  [HDL] Median CFB - 24 weeks results: 0.15 mmol/L
[19]
  [HDL] Mean CFB - 24 weeks results: 0.13 mmol/L
  [HDL] Mean percentage CFB - 24 weeks results: 8.89%
  [HDL] Median CFB - 24 weeks results: 0.20 mmol/L
[20]
  [HDL] Mean CFB - 24 weeks results: 0.11 mmol/L
  [HDL] Mean percentage CFB - 24 weeks results: 8.29%
  [HDL] Median CFB - 24 weeks results: 0.11 mmol/L
[21]
  [HDL] Mean CFB - 24 weeks results: 0.08 mmol/L
  [HDL] Mean percentage CFB - 24 weeks results: 10.96%
  [HDL] Median CFB - 24 weeks results: 0.18 mmol/L
[22]
  [HDL] Mean CFB - 24 weeks results: 0.10 mmol/L
  [HDL] Mean percentage CFB - 24 weeks results: 12.63%
  [HDL] Median CFB - 24 weeks results: 0.21 mmol/L
[23]
  [HDL] Mean CFB - 24 weeks results: 0.10 mmol/L
  [HDL] Mean percentage CFB - 24 weeks results: 10.63%
  [HDL] Median CFB - 24 weeks results: 0.10 mmol/L
Placebo switched to 100 mg q.d. at week 12 (N = 15), week 16
  [HDL] Mean percentage CFB - 24 weeks results: −0.14%
Placebo switched to 100 mg q.d. at week 12 (N = 15), week 20
  [HDL] Mean percentage CFB - 24 weeks results: 0.95%
Placebo switched to 100 mg q.d. at week 12 (N = 15), week 24
  [HDL] Mean percentage CFB - 24 weeks results: 0.14%
